Test results reported in patent US9708314B2, “Heterocyclic amide compound” (NISSAN CHEMICAL INDUSTRIES, LTD., priority 2013, dated 2017).
Each block holds one compound with its values, some of them ahead of it.

Legend:
[1] = test system: directly sowed Oryza sativa; assay: Test Example 4: effect on crop by application to foliage (diluvial soil, plastic box); type: in vivo; settings: application to foliage; for effect on crop, d (directly sowed Oryza sativa): 320 g/ha
Method in brief: (§1)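 Emulsion-formulated compound, diluted to a predetermined g/ha dose, applied by small sprayer to leaves and stems of 14-day-old seedlings grown in sterilized diluvial soil. Effect rated on 0–5 herbicidal-ratio scale three weeks on.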

[2] = test system: Zea mays; assay: as above; type: in vivo; settings: application to foliage; for effect on crop, b (Zea mays): 320 g/ha
Method in brief: as §1

[3] = test system: Brassica campestris L.; assay: as above; type: in vivo; settings: application to foliage; for effect on crop, g (Brassica campestris L.): 320 g/ha
Method in brief: as §1

[4] = test system: Triticum aestivum; assay: as above; type: in vivo; settings: application to foliage; for effect on crop, e (Triticum aestivum): 320 g/ha
Method in brief: as §1

[5] = test system: Glycine max; assay: as above; type: in vivo; settings: application to foliage; for effect on crop, c (Glycine max): 320 g/ha
Method in brief: as §1

[6] = test system: Beta vulgaris ssp. vulgaris; assay: as above; type: in vivo; settings: application to foliage; for effect on crop, f (Beta vulgaris ssp. vulgaris): 320 g/ha
Method in brief: as §1

[7] = test system: directly sowed Oryza sativa; assay: Test Example 3: effect on crop by application to foliage (Wagner pot, water depth 0.1-0.5 cm); type: in vivo; settings: Nineteenth Table, application herbicide amount 320 g/ha; for b (effect on crop grade): application to foliage
Method in brief: (§2)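 Greenhouse pot test, 25–30 °C, alluvial soil. Sown seedlings grown 14 days then sprayed on leaves and stems with emulsion diluted to target g/ha. Rating at 3 weeks, 0–5 scale (0 ≤5%, 5 ≥90%).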

[8] = test system: Abutilon theophrasti; assay: Test Example 4: herbicidal effect by application to foliage (diluvial soil, plastic box); type: in vivo; settings: application to foliage; for herbicidal effect, M (Abutilon theophrasti): 320 g/ha
Method in brief: as §1

[9] = test system: Amaranthus retroflexus; assay: as above; type: in vivo; settings: application to foliage; for herbicidal effect, N (Amaranthus retroflexus): 320 g/ha
Method in brief: as §1

[10] = test system: Avena fatua; assay: as above; type: in vivo; settings: application to foliage; for herbicidal effect, I (Avena fatua): 320 g/ha
Method in brief: as §1

[11] = test system: Galium spurium; assay: as above; type: in vivo; settings: application to foliage; for herbicidal effect, Q (Galium spurium): 320 g/ha
Method in brief: as §1

[12] = test system: Lolium multiflorum Lam.; assay: as above; type: in vivo; settings: application to foliage; for herbicidal effect, K (Lolium multiflorum Lam.): 320 g/ha
Method in brief: as §1

[13] = test system: Apera spica-venti.; assay: as above; type: in vivo; settings: application to foliage; for herbicidal effect, L (Apera spica-venti.): 320 g/ha
Method in brief: as §1

[14] = test system: Stellaria media; assay: as above; type: in vivo; settings: application to foliage; for herbicidal effect, P (Stellaria media): 320 g/ha
Method in brief: as §1

[15] = test system: Alopecurus myosuroides; assay: as above; type: in vivo; settings: application to foliage; for herbicidal effect, J (Alopecurus myosuroides): 320 g/ha
Method in brief: as §1

[16] = test system: Digitaria ciliaris; assay: as above; type: in vivo; settings: application to foliage; for herbicidal effect, F (Digitaria ciliaris): 320 g/ha
Method in brief: as §1

[17] = test system: Setaria viridis; assay: as above; type: in vivo; settings: application to foliage; for herbicidal effect, G (Setaria viridis): 320 g/ha
Method in brief: as §1

[18] = test system: Echinochloa crus-galli var. crus-galli; assay: as above; type: in vivo; settings: application to foliage; for herbicidal effect, H (Echinochloa crus-galli var. crus-galli): 320 g/ha
Method in brief: as §1

[19] = test system: Veronica persica; assay: as above; type: in vivo; settings: application to foliage; for herbicidal effect, R (Veronica persica): 320 g/ha
Method in brief: as §1

[20] = test system: Chenopodium album; assay: as above; type: in vivo; settings: application to foliage; for herbicidal effect, O (Chenopodium album): 320 g/ha
Method in brief: as §1

[21] = test system: Leptochloa chinensis; assay: Test Example 3: herbicidal effect by application to foliage (Wagner pot, water depth 0.1-0.5 cm); type: in vivo; settings: Nineteenth Table, application herbicide amount 320 g/ha; for D (herbicidal effect grade): application to foliage
Method in brief: as §2

[22] = test system: Echinochloa crus-galli var. crus-galli; assay: as above; type: in vivo; settings: Nineteenth Table, application herbicide amount 320 g/ha; for H (herbicidal effect grade): application to foliage
Method in brief: as §2

[23] = test system: Cyperus difformis; assay: as above; type: in vivo; settings: Nineteenth Table, application herbicide amount 320 g/ha; for E (herbicidal effect grade): application to foliage
Method in brief: as §2

[24] = application herbicide amount 320 g/ha

- melting point: 238 to 241 °C
Structure (SMILES): Cc1nnc(NC(=O)c2ccc(C(F)(F)F)n3c(Cl)nnc23)o1 [1-013, 3-Chloro-N-(5-methyl-1,3,4-oxadiazol-2-yl)-5-(trifluoromethyl)-[1,2,4]triazolo[4,3-a]pyridine-8-carboxamide]
- d (directly sowed Oryza sativa) effect on crop [1, 24]: 0 (Herbicidal ratio of 5% or less (almost no effect))
- b (Zea mays) effect on crop [2, 24]: 0 (Herbicidal ratio of 5% or less (almost no effect))
- g (Brassica campestris L.) effect on crop [3, 24]: 0 (Herbicidal ratio of 5% or less (almost no effect))
- e (Triticum aestivum) effect on crop [4, 24]: 1 (Herbicidal ratio of 5% or more and less than 20%)
- c (Glycine max) effect on crop [5, 24]: 0 (Herbicidal ratio of 5% or less (almost no effect))
- f (Beta vulgaris ssp. vulgaris) effect on crop [6, 24]: 3 (Herbicidal ratio of 40% or more and less than 70%)
- b (directly sowed Oryza sativa) effect on crop grade [7]: 0 (Herbicidal ratio of 5% or less (almost no effect))
- M (Abutilon theophrasti) herbicidal effect [8, 24]: 3 (Herbicidal ratio of 40% or more and less than 70%)
- N (Amaranthus retroflexus) herbicidal effect [9, 24]: 3 (Herbicidal ratio of 40% or more and less than 70%)
- I (Avena fatua) herbicidal effect [10, 24]: 0 (Herbicidal ratio of 5% or less (almost no effect))
- Q (Galium spurium) herbicidal effect [11, 24]: 1 (Herbicidal ratio of 5% or more and less than 20%)
- K (Lolium multiflorum Lam.) herbicidal effect [12, 24]: 1 (Herbicidal ratio of 5% or more and less than 20%)
- L (Apera spica-venti.) herbicidal effect [13, 24]: 0 (Herbicidal ratio of 5% or less (almost no effect))
- P (Stellaria media) herbicidal effect [14, 24]: 4 (Herbicidal ratio of 70% or more and less than 90%)
- J (Alopecurus myosuroides) herbicidal effect [15, 24]: 1 (Herbicidal ratio of 5% or more and less than 20%)
- F (Digitaria ciliaris) herbicidal effect [16, 24]: 3 (Herbicidal ratio of 40% or more and less than 70%)
- G (Setaria viridis) herbicidal effect [17, 24]: 1 (Herbicidal ratio of 5% or more and less than 20%)
- H (Echinochloa crus-galli var. crus-galli) herbicidal effect [18, 24]: 4 (Herbicidal ratio of 70% or more and less than 90%)
- R (Veronica persica) herbicidal effect [19, 24]: 3 (Herbicidal ratio of 40% or more and less than 70%)
- O (Chenopodium album) herbicidal effect [20, 24]: 5 (Herbicidal ratio of 90% or more (almost completely withered))
- D (Leptochloa chinensis) herbicidal ratio grade [21]: 4 (Herbicidal ratio of 70% or more and less than 90%)
- H (Echinochloa crus-galli var. crus-galli) herbicidal ratio grade [22]: 3 (Herbicidal ratio of 40% or more and less than 70%)
- E (Cyperus difformis) herbicidal ratio grade [23]: 3 (Herbicidal ratio of 40% or more and less than 70%)

- melting point: 189 to 190 °C
Structure (SMILES): CC(C)c1nnc2c(C(=O)Nc3nnnn3C)ccc(Cl)n12 [2-004, 5-Chloro-3-isopropyl-N-(1-methyl-1H-tetrazol-5-yl)-[1,2,4]triazolo[4,3-a]pyridine-8-carboxamide]

- melting point: 185 to 186 °C
Structure (SMILES): Cc1nonc1NC(=O)c1ccc(C(F)(F)F)n2c(C(C)C)nnc12 [3-001, 3-Isopropyl-N-(4-methyl-1,2,5-oxadiazol-3-yl)-5-(trifluoromethyl)-[1,2,4]triazolo[4,3-a]pyridine-8-carboxamide]

Structure (SMILES): CCn1ncnc1NC(=O)c1ccc(C(F)(F)F)n2c(C(C)C)nnc12 [4-002]
- effect on crop, d (directly sowed Oryza sativa) [1]: 1 (Herbicidal ratio of 5% or more and less than 20%)
- effect on crop, b (Zea mays) [2]: 0 (Herbicidal ratio of 5% or less (almost no effect))
- effect on crop, g (Brassica campestris L.) [3]: 0 (Herbicidal ratio of 5% or less (almost no effect))
- effect on crop, e (Triticum aestivum) [4]: 0 (Herbicidal ratio of 5% or less (almost no effect))
- effect on crop, c (Glycine max) [5]: 0 (Herbicidal ratio of 5% or less (almost no effect))
- effect on crop, f (Beta vulgaris ssp. vulgaris) [6]: 0 (Herbicidal ratio of 5% or less (almost no effect))
- b (effect on crop grade) [7]: 0 (Herbicidal ratio of 5% or less (almost no effect))
- herbicidal effect, M (Abutilon theophrasti) [8]: 5 (Herbicidal ratio of 90% or more (almost completely withered))
- herbicidal effect, N (Amaranthus retroflexus) [9]: 4 (Herbicidal ratio of 70% or more and less than 90%)
- herbicidal effect, I (Avena fatua) [10]: 1 (Herbicidal ratio of 5% or more and less than 20%)
- herbicidal effect, Q (Galium spurium) [11]: 1 (Herbicidal ratio of 5% or more and less than 20%)
- herbicidal effect, K (Lolium multiflorum Lam.) [12]: 0 (Herbicidal ratio of 5% or less (almost no effect))
- herbicidal effect, L (Apera spica-venti.) [13]: 0 (Herbicidal ratio of 5% or less (almost no effect))
- herbicidal effect, P (Stellaria media) [14]: 3 (Herbicidal ratio of 40% or more and less than 70%)
- herbicidal effect, J (Alopecurus myosuroides) [15]: 0 (Herbicidal ratio of 5% or less (almost no effect))
- herbicidal effect, F (Digitaria ciliaris) [16]: 1 (Herbicidal ratio of 5% or more and less than 20%)
- herbicidal effect, G (Setaria viridis) [17]: 1 (Herbicidal ratio of 5% or more and less than 20%)
- herbicidal effect, H (Echinochloa crus-galli var. crus-galli) [18]: 2 (Herbicidal ratio of 20% or more and less than 40%)
- herbicidal effect, R (Veronica persica) [19]: 1 (Herbicidal ratio of 5% or more and less than 20%)
- herbicidal effect, O (Chenopodium album) [20]: 4 (Herbicidal ratio of 70% or more and less than 90%)
- D (herbicidal effect grade) [21]: 4 (Herbicidal ratio of 70% or more and less than 90%)
- H (herbicidal effect grade) [22]: 0 (Herbicidal ratio of 5% or less (almost no effect))
- E (herbicidal effect grade) [23]: 0 (Herbicidal ratio of 5% or less (almost no effect))

Structure (SMILES): CCn1nc2c(C(=O)Nc3nnc(C)o3)ccc(C(F)(F)F)n2c1=O [6-003]
- effect on crop, d (directly sowed Oryza sativa) [1]: 0 (Herbicidal ratio of 5% or less (almost no effect))
- effect on crop, b (Zea mays) [2]: 0 (Herbicidal ratio of 5% or less (almost no effect))
- effect on crop, g (Brassica campestris L.) [3]: 0 (Herbicidal ratio of 5% or less (almost no effect))
- effect on crop, e (Triticum aestivum) [4]: 0 (Herbicidal ratio of 5% or less (almost no effect))
- effect on crop, c (Glycine max) [5]: 0 (Herbicidal ratio of 5% or less (almost no effect))
- effect on crop, f (Beta vulgaris ssp. vulgaris) [6]: 1 (Herbicidal ratio of 5% or more and less than 20%)
- b (effect on crop grade) [7]: 0 (Herbicidal ratio of 5% or less (almost no effect))
- herbicidal effect, M (Abutilon theophrasti) [8]: 4 (Herbicidal ratio of 70% or more and less than 90%)
- herbicidal effect, N (Amaranthus retroflexus) [9]: 2 (Herbicidal ratio of 20% or more and less than 40%)
- herbicidal effect, I (Avena fatua) [10]: 0 (Herbicidal ratio of 5% or less (almost no effect))
- herbicidal effect, Q (Galium spurium) [11]: 1 (Herbicidal ratio of 5% or more and less than 20%)
- herbicidal effect, K (Lolium multiflorum Lam.) [12]: 0 (Herbicidal ratio of 5% or less (almost no effect))
- herbicidal effect, L (Apera spica-venti.) [13]: 0 (Herbicidal ratio of 5% or less (almost no effect))
- herbicidal effect, P (Stellaria media) [14]: 4 (Herbicidal ratio of 70% or more and less than 90%)
- herbicidal effect, J (Alopecurus myosuroides) [15]: 0 (Herbicidal ratio of 5% or less (almost no effect))
- herbicidal effect, F (Digitaria ciliaris) [16]: 4 (Herbicidal ratio of 70% or more and less than 90%)
- herbicidal effect, G (Setaria viridis) [17]: 3 (Herbicidal ratio of 40% or more and less than 70%)
- herbicidal effect, H (Echinochloa crus-galli var. crus-galli) [18]: 3 (Herbicidal ratio of 40% or more and less than 70%)
- herbicidal effect, R (Veronica persica) [19]: 1 (Herbicidal ratio of 5% or more and less than 20%)
- herbicidal effect, O (Chenopodium album) [20]: 3 (Herbicidal ratio of 40% or more and less than 70%)
- D (herbicidal effect grade) [21]: 5 (Herbicidal ratio of 90% or more (almost completely withered))
- H (herbicidal effect grade) [22]: 1 (Herbicidal ratio of 5% or more and less than 20%)
- E (herbicidal effect grade) [23]: 0 (Herbicidal ratio of 5% or less (almost no effect))
